Laboratory results taken from patent US10407381B2 (THE BOARD OF TRUSTEES OF THE UNIVERSITY OF ILLINOIS, priority 2015, dated 2019).
pEC50: −log10 of the molar value. Like-named read-outs stand apart in the source and are kept apart here.

How the values were obtained:
human 5-HT2C-INI = molecular target: T1, human 5-HT2C-INI (Homo sapiens, UniProt P28335); experiment: Calcium flux (FLIPR) assay, human 5-HT2C-INI stably expressed in HEK-293 (Flp-In-293) cells; conditions: human 5-HT2C-INI in HEK-293 cells, FLIPR; for Emax, % 5-HT 5-HT2C: normalized to 5-HT; for EC50: NA = no activity at 10 μM
T1 sequence (P28335 33-458): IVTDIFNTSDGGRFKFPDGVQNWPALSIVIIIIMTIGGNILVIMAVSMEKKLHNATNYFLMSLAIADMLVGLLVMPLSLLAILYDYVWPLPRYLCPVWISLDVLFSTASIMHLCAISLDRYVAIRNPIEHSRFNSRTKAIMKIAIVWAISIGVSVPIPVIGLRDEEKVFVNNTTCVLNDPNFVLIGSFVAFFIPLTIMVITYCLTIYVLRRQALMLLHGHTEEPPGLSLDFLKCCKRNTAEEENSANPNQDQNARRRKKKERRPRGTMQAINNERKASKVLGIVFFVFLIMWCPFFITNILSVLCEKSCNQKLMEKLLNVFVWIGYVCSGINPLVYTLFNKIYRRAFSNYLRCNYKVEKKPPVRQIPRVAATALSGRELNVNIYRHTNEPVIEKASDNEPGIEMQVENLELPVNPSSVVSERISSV

5-HT2B = 5-HT2B (Homo sapiens, UniProt P41595); experiment: Calcium flux (FLIPR) assay, human 5-HT2B stably expressed in HEK-293 (Flp-In-293) cells; conditions: for Emax, % 5-HT 5-HT2B: normalized to 5-HT
Chain of 5-HT2B (P41595 whole entry): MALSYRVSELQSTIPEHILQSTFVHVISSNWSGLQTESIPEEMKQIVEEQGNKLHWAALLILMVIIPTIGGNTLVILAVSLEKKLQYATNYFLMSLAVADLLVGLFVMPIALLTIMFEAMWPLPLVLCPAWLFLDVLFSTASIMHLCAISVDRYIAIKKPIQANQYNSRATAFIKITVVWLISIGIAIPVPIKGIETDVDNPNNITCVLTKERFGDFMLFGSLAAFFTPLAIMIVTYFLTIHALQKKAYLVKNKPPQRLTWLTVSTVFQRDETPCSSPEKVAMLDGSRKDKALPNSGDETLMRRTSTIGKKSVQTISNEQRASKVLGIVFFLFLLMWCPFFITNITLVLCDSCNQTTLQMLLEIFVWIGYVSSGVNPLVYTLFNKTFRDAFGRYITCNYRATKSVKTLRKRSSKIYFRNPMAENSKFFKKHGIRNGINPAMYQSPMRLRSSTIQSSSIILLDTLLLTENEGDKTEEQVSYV

5-HT2A = 5-HT2A (Homo sapiens, UniProt P28223); experiment: Calcium flux (FLIPR) assay, human 5-HT2A stably expressed in HEK-293 (Flp-In-293) cells; conditions: for Emax, % 5-HT 5-HT2A / EC50: human 5-HT2A in HEK-293 cells, FLIPR; for Emax, % 5-HT 5-HT2A: normalized to 5-HT; for EC50: NA = no activity at 10 μM
Chain of 5-HT2A (P28223 whole entry): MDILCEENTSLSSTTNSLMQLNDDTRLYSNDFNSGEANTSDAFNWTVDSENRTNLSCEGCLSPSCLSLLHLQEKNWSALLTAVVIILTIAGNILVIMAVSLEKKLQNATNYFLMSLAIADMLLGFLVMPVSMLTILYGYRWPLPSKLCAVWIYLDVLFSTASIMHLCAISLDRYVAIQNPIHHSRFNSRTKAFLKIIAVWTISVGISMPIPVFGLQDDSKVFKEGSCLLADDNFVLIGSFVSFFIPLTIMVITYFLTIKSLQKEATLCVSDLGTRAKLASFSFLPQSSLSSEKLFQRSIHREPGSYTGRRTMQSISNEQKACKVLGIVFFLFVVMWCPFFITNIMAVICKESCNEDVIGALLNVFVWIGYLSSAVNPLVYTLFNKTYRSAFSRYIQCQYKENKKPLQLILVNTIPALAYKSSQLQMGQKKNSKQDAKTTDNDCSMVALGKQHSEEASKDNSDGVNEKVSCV

[1] = read-out: EC50, nM 5-HT2B, human 5-HT2B in HEK-293 cells, NA = no activity at 10 μM
[2] = EC50, nM 5-HT2B, human 5-HT2B in HEK-293 cells, NA = no activity at 10 μM

Structure (SMILES) | Emax, % 5-HT 5-HT2C (human 5-HT2C-INI) | EC50 (human 5-HT2C-INI; read-out: EC50, nM 5-HT2C) [nM] | Emax, % 5-HT 5-HT2B (5-HT2B; human 5-HT2B in HEK-293 cells) | EC50 (5-HT2B; [1]) [nM] | Emax, % 5-HT 5-HT2A (5-HT2A) | EC50 (5-HT2A; read-out: EC50, nM 5-HT2A) [nM] | EC50 (human 5-HT2C-INI; EC50, nM 5-HT2C) [nM] | EC50 (5-HT2B; [2]) [nM] | EC50 (5-HT2A; EC50, nM 5-HT2A) [nM] | pEC50 (5-HT2A)
C=CCOc1ccc(Cl)c(Cl)c1C1CC1CN (single isomer, unassigned; (-)) [(−)-Example 39] | (93%) % 5-HT | 108 | (99%) % 5-HT | 3960 | (32%) % 5-HT | 426 | – | – | – | –
COc1cc(F)c(Cl)cc1[C@@H]1C[C@H]1CN (single isomer, unassigned) [(+)-Example 1, (+)-(2-(5-Chloro-4-fluoro-2-methoxyphenyl)cyclopropyl)methanamine] | (97%) % 5-HT | – | (59%) % 5-HT | – | (93%) % 5-HT | – | 7.6 | 25 | 81 | –
CCOc1ccc(Cl)c(F)c1C1CC1CN (single isomer, unassigned; (+)) [(+)-Example 30, (+)-(2-(3-Chloro-6-ethoxy-2-fluorophenyl)cyclopropyl)methanamine] | (89%) % 5-HT | – | (36%) % 5-HT | – | (53%) % 5-HT | – | 28 | 900 | 820 | –
CCOc1ccc(Cl)c(Cl)c1C1CC1CN (single isomer, unassigned; (+)) [(+)-Example 37, (+)-(2-(2,3-Dichloro-6-ethoxyphenyl)cyclopropyl)methanamine] | (101%) % 5-HT | – | (61%) % 5-HT | – | (32%) % 5-HT | – | 91 | 1310 | 976 | –
COc1ccc(Cl)c(F)c1[C@@H]1C[C@H]1CN (single isomer, unassigned) [(+)-Example 29, (+)-(2-(3-chloro-2-fluoro-6-methoxyphenyl)cyclopropyl)methanamine] | (92%) % 5-HT | – | (52%) % 5-HT | – | (85%) % 5-HT | – | 13 | 354 | 212 | –
CCOc1cc(F)c(F)cc1C1CC1CN (single isomer, unassigned; (-)) [(−)-Example 41, (−)-(2-(2-Ethoxy-4,5-difluorophenyl)cyclopropyl)methanamine] | (103%) % 5-HT | – | (35%) % 5-HT | – | (52%) % 5-HT | – | 33 | 299 | 778 | –
NCC1CC1c1cc(Cl)ccc1OCC(F)F (single isomer, unassigned; (+)) [(+)-Example 21, (+)-(2-(5-Chloro-2-(2,2-difluoroethoxy)phenyl)cyclopropyl)methanamine] | (81%) % 5-HT | – | (27%) % 5-HT | – | (31%) % 5-HT | – | 91 | 839 | 1810 | –
CCCOc1ccc(F)c(F)c1C1CC1CN (single isomer, unassigned; (+)) [(+)-Example 48, (+)-(2-(2,3-Difluoro-6-propoxyphenyl)cyclopropyl)methanamine] | (90%) % 5-HT | – | (39%) % 5-HT | – | (18%) % 5-HT | – | 47 | 4220 | 2070 | –
COc1ccc(F)c(Cl)c1C1CC1CN (single isomer, unassigned; (+)) [(+)-Example 50, (+)-(2-(2-Chloro-3-fluoro-6-methoxyphenyl)cyclopropyl)methanamine] | (88%) % 5-HT | 24 | (60%) % 5-HT | – | (77%) % 5-HT | 769 | – | – | – | –
COc1ccc(Cl)c(Cl)c1C1CC1CN (single isomer, unassigned; (+)) [(+)-Example 36, (+)-(2-(2,3-Dichloro-6-methoxyphenyl)cyclopropyl)methanamine] | (98%) % 5-HT | 21 | (46%) % 5-HT | 534 | (76%) % 5-HT | 203 | – | – | – | –
COc1cc(Cl)c(Cl)cc1C1CC1CN (single isomer, unassigned; (+)) [(+)-Example 33, (+)-(2-(4,5-Dichloro-2-methoxyphenyl)cyclopropyl)methanamine] | (95%) % 5-HT | 9.7 | – | 31 | (85%) % 5-HT | 21 | – | – | – | –
CCOc1ccc(Cl)cc1C1CC1CN (single isomer, unassigned; (+)) [(+)-Example 11, (+)-(2-(5-Chloro-2-ethoxyphenyl)cyclopropyl)methanamine] | (91%) % 5-HT | – | (45%) % 5-HT | – | (49%) % 5-HT | – | 13 | 86 | 1210 | –
C=CCOc1ccc(Cl)c(F)c1C1CC1CN (single isomer, unassigned; (-)) [(−)-Example 32, (−)-(2-(6-(Allyloxy)-3-chloro-2-fluorophenyl)cyclopropyl)methanamine] | (87%) % 5-HT | – | (5%) % 5-HT | – | (16%) % 5-HT | – | 165 | – | – | 5.97
COc1cc(F)c(Cl)cc1[C@@H]1C[C@H]1CN (single isomer, unassigned) [(−)-Example 1, (−)-(2-(5-Chloro-4-fluoro-2-methoxyphenyl)cyclopropyl)methanamine] | (99%) % 5-HT | – | (44%) % 5-HT | – | (88%) % 5-HT | – | 16 | 329 | 235 | –
COc1cc(F)c(F)cc1C1CC1CN (single isomer, unassigned; (+)) [(+)-Example 40, (+)-(2-(4,5-Difluoro-2-methoxyphenyl)cyclopropyl)methanamine] | (108%) % 5-HT | – | (69%) % 5-HT | – | – | 81 | – | – | – | –
COc1ccc(F)c(F)c1[C@@H]1C[C@H]1CN (single isomer, unassigned) [(+)-Example 45, (+)-(2-(2,3-Difluoro-6-methoxyphenyl)cyclopropyl)methanamine] | (108%) % 5-HT | – | (64%) % 5-HT | – | (79%) % 5-HT | – | 9.5 | 209 | 437 | –
CCOc1ccc(F)c(F)c1C1CC1CN (single isomer, unassigned; (+)) [(+)-Example 46, (+)-(2-(6-Ethoxy-2,3-difluorophenyl)cyclopropyl)methanamine] | (107%) % 5-HT | – | (48%) % 5-HT | – | (57%) % 5-HT | – | 7.2 | 288 | 1160 | –
COc1ccc(F)c(F)c1C1CC1CN (single isomer, unassigned; (-)) [(−)-Example 45, (−)-(2-(2,3-Difluoro-6-methoxyphenyl)cyclopropyl)methanamine] | (108%) % 5-HT | 16 | (62%) % 5-HT | 462 | (72%) % 5-HT | 461 | – | – | – | –
